Results on four molecules are retold here after patent US20160113900A1, “INHIBITORS OF MITOCHONDRIAL STAT3 AND USES THEREOF IN MODULATION OF MAST CELL EXOCYTOSIS” (Yissum Research Development Company of the Hebrew …, priority 2014, published 2016).

Data set [1] has as its target signal transducer and activator of transcription factor 3 (STAT3), mitochondrial, endogenous in RBL cells (rat (RBL cells)) (UniProt P52631). Put plainly: cell-based or functional assay.
The test system of data set [2] is RBL cells. Nature of the data set: β-Hexosaminidase release assay (degranulation) in RBL cells. Format: cell-based, rat. The procedure: (§1) RBL-2H3 cells were maintained in RPMI 1640 medium as previously described1. Bone marrow was isolated from 5-6 week-old mice, and BMMC were cultured in RPMI medium supplemented with 20 ng/ml interleukin-3 (IL-3) and 20 ng/ml SCF as previously described2, 3. Cells were generally grown for a minimum of 4 weeks and used when >90% of the population expressed FcεRI. BMMC and RBL cells were sensitized first with anti-DNP IgE monoclonal antibody (SPE-7; Sigma-Aldrich Corp.) and then challenged with DNP-BSA (Sigma-Aldrich Corp.). IgE antibody was centrifuged (18,000 g, 5 min) before use to remove aggregates. […] For glycolysis elimination cells were maintained in glucose-free RPMI supplemented with 10% dialyzed fetal calf serum and 5 mM galactose.
1×104 RBL or 3×104 BMMC were immunologically activated as described above. After IgE incubation, the cells were washed three times with 5 mL of degranulation buffer (NaCl 130 mM, KCl 5 mM, Glucose 5.6 mM, MgCl2 1 mM, CaCl2 1.2 mM, Hepes pH 7.4 10 mM, BSA 0.1%) and resuspended in 200 μL of the same buffer with DNP-albumin for 30 min. The release of β-hexosaminidase was determined in triplicates in a 96-well plate. Aliquots (20 μL) of supernatants and cell lysates were incubated for 30 minutes with 100 μL of substrate solution (1.3 mg/mL p-nitrophenyl-b-D-2-acetamido-2-deoxyglucopyranozide in 0.1 M citrate [pH 4.51]). The reaction was stopped by the addition of 200 μL of 0.2 M glycine (pH 10.7). The plate OD was read in an enzyme-linked immunosorbent assay (ELISA) reader at a wavelength of 405 nm Percent release values for each experimental condition were calculated3.

The test system of data set [3] is RBL cells. Put plainly: Oxygen consumption (Seahorse XF analyzer) in RBL cells. The format is cell-based, rat. Conditions: for decrease in oxygen consumption: 40 μM U0126. The procedure: as §1
Oxygen consumption rate (OCR) was measured using an XF24 extracellular flux analyzer (Seahorse Biosciences, North Billeric, Mass., USA).

In the next data set the test system is caspase3. Nature of the data set: Western blot of caspase3 / cleaved caspase3 (apoptosis) in RBL cells. The format is cell-based, rat. As to conditions: activated RBL cells, 40 μM U0126. The procedure: RBL cells and mitochondrial pellets were lysed by the addition of lysis buffer (50 mM Tris-HCl pH 7.4, 1% Nonidet P-40, 0.25% Na-deoxycholate, 150 mM NaCl, 1 mM EDTA, 1 mM PMSF) supplemented with 15 μl protease inhibitor (Sigma-Aldrich). Cells and mitochondria were vortexed and incubated on ice for 15 min. The lysates were then centrifuged at 14,000 g for 15 min and pellets were discarded. The protein concentration of each sample was determined using Bradford Reagent (Sigma-Aldrich). Proteins were resolved by 10-15% SDS-PAGE under reducing conditions and transferred to polyvinylidene difluoride membranes (Millipore Billerica, Ma). The membranes were incubated in 5% fat-free milk and TBST (10 mM Tris-HCl, pH 7.4, 150 mM NaCl, 0.1% Tween 20) for 1 h and then in 5% BSA and TBST containing various dilutions of primary Abs for 18 h at 4° C. The membranes were washed three times with TBST for 5 mM before and after each incubation with secondary Ab. The proteins were detected with the appropriate secondary Ab (1 h; room temperature) coupled to HRP-conjugated goat anti-rabbit or anti-mouse Ab and visualized by chemiluminescence according to the manufacturer's instructions (Pierce).
On the technique in general: In western blotting, separated proteins are transferred to a membrane and probed.

The test system of data set [4] is RBL cells. Nature of the data set: ATP determination (ATPLite luminescence) in RBL cells. The format is cell-based, rat. The procedure:
as §1
ATP levels were measured using the ATPLite luminescence-based assay according to the manufacturer's instructions (Perkin Elmer, Waltham, Mass., USA).
Background: In ATP-based viability assays light output follows the ATP content of the culture.

Data set [5] has as its system STAT3 serine 727 phosphorylation. Nature of the data set: Western blot of STAT3 serine 727 phosphorylation in activated RBL cells. Format: cell-based, rat. As for the experimental part: RBL cells were washed once in cold PBS prior to homogenization. 9×10^6 cells were homogenized in buffer A (320 mm sucrose, 5 mm Tris, 2 mm EGTA, pH 7.4) with 10 strokes of a Teflon Dounce homogenizer. The procedure was performed at 4° C. The homogenate was centrifuged for 3 min at 2000 g and the supernatant kept. This was repeated twice, and the supernatants combined then centrifuged for 3 min at 2000 g. to remove the nuclei and cell debris. The supernatant was transferred to a clean tube and centrifuged for 10 min at 12,000 g to pellet mitochondria, washed twice resuspended in a small volume of buffer A and stored at −70° C. In order to prepare mitoplasts, the mitochondrial pellet was resuspended in buffer A with the addition of 0.02% (w/v) digitonin. The pellet was resuspended and washed twice in large volumes of digitonin-free buffer A. […] Cells and mitochondria were vortexed and incubated on ice for 15 min. The lysates were then centrifuged at 14,000 g for 15 min and pellets were discarded. The protein concentration of each sample was determined using Bradford Reagent (Sigma-Aldrich). Proteins were resolved by 10-15% SDS-PAGE under reducing conditions and transferred to polyvinylidene difluoride membranes (Millipore Billerica, Ma). […] The membranes were washed three times with TBST for 5 mM before and after each incubation with secondary Ab. The proteins were detected with the appropriate secondary Ab (1 h; room temperature) coupled to HRP-conjugated goat anti-rabbit or anti-mouse Ab and visualized by chemiluminescence according to the manufacturer's instructions (Pierce).

Setting [6] is: RBL cells transfected with PIAS3-mito vs empty plasmid.

Chain of UniProt P52631 (P52631 2-770 limits assumed): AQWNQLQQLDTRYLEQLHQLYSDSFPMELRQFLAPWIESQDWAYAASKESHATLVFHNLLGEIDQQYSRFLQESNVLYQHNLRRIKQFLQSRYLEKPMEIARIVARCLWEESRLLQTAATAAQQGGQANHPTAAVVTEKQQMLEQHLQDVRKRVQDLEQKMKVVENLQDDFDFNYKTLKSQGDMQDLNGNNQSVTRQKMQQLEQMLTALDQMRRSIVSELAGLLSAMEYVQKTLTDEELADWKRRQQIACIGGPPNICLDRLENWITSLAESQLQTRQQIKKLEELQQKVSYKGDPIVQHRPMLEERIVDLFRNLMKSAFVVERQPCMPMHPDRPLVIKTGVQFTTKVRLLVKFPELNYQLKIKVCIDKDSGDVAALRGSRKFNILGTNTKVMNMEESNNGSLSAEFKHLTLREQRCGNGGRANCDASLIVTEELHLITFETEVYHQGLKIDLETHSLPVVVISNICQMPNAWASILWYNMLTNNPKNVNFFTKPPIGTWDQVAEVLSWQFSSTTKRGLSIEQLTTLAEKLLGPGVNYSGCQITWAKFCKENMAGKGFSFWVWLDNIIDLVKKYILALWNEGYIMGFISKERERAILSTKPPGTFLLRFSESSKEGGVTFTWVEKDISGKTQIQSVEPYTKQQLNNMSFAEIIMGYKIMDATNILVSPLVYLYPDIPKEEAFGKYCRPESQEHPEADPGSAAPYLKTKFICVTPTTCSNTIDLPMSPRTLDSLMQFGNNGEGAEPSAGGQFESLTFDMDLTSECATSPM

Consider “PIAS3 fused to a mitochondrial target sequence (PIAS3-mito) (from UniProt O54714 13-628)”, for which, in data set [1], the ATP levels of activated cells compared to control (empty plasmid) worked out at 15.9 % decrease and the degranulation (β-hexosaminidase release) came to 67.5%.

Turning to `COc1ccc(S(=O)(=O)Nc2cc(-c3c(O)ccc4ccccc34)c(O)c3ccccc23)cc1` [Mitocur C188-9, N-(1′,2-Dihydroxy-1,2′-binaphthalen-4′-yl)-4-methoxybenzenesulfonamide], the degranulation entry in the data set with RBL cells [2] (immunologically activated RBL cells, 250 μM C188-9, 10 min) was “abolished”.

Take `N#CC(=C(/N)Sc1ccccc1N)/C(C#N)=C(\N)Sc1ccccc1N` [Mitocur U0126, reference compound]: the “decrease in oxygen consumption” value was 15.8±4.9% in the data set with RBL cells [3] (activated RBL cells) and 9.4±2.4% in the data set on RBL cells [3] (quiescent RBL cells). Further, the “caspase3 levels (apoptosis)” value in the data set with caspase3 is “no change”. The “reduction in degranulation as compared to control” value with RBL cells [2] (IgE-Ag stimulated RBL cells, 40 μM U0126, 20 min) stood at 33.0±0.6%. In addition, the “degranulation levels at higher concentrations” value with RBL cells [2] (RBL cells, U0126 above 40 μM (FIG. 12)) is given as “more profound reduction”. Moreover, the “decrease in ATP levels” value in the data set on RBL cells [4] (immunologically activated RBL cells, 20 min pre-treatment with 40 μM U0126) was found to be 3.0±0.4%. Besides, the “STAT3 727 serine phosphorylation, total cell level” value in data set [5] (RBL cells, 40 μM U0126, activated 5 min) is “significant decrease”. Besides, the “STAT3 727 serine phosphorylation, mitochondrial level” value in data set [5] (activated RBL cells fractionated into cytosol and mitochondria, 40 μM U0126) was “decrease”.

B1: PIAS3-mito: PIAS3 fused to a mitochondrial target sequence, expressed from a transfected plasmid (SEQ ID NO. 16) (protein)
chain: MSVLTPLLLRGLTGSARRLPVPRAKIHSLLQVDSFRVSELQVLLGFAGRNKSGRKHELLAKALHLLKSSCAPSVQMKIKELYRRRFPRKTLGPSDLSLLSLPPGTSPPVHPDVTMKPLPFYEVYGELIRPTTLASTSSQRFEEAHFTFALTPQQLQQILTSREVLPGAKCDYTIQVQLRFCLCETSCPQEDYFPPNLFVKVNGKLCPLPGYLPPTKNGAEPKRPSRPINITPLARLSATVPNTIVVNWSSEFGRNYSLSVYLVRQLTAGTLLQKLRAKGIRNPDHSRALIKEKLTADPDSEVATTSLRVSLMCPLGKMRLTVPCRALTCAHLQSFDAALYLQMNEKKPTWTCPVCDKKAPYESLIIDGLFMEILNSCSDCDEIQFMEDGSWCPMKPKKEASEVCPPPGYGLDGLQYSAVQEGIQPESKKRVEVIDLTIESSSDEEDLPPTKKHCPVTSAAIPALPGSKGALTSGHQPSSVLRSPAMGTLGSDFLSSLPLHEYPPAFPLGADIQGLDLFSFLQTESQHYGPSVITSLDEQDTLGHFFQYRGTPSHFLGPLAPTLGSSHRSSTPAPPPGRVSSIVAPGSSLREGHGGPLPSGPSLTGCRSDVISLD
In the case of B1, the “oxygen consumption in activated cells compared to activated control cells” value in the data set on RBL cells [3] (setting [6]) is reported as “did not change”. In the data set on RBL cells [2] (setting [6]), the decrease in degranulation stood at 67.5±15.0%. Further, in the data set with RBL cells [4] (RBL cells transfected with PIAS3-mito vs empty plasmid, activated 5 min), the “decrease in ATP levels of activated cells compared to control” value came out at 15.9±1.6%.
